Laboratory results from patent publication US11697650B2, “Compounds having tetrahydroindolizine-1-carboxamide as BCL-2 inhibitors” (Eil Therapeutics, Inc., priority 2021, dated 2023).

Assays:
BCL-XL = BCL-XL (Homo sapiens (Human), UniProt Q07817); assay: BCL-XL TR-FRET Assay (primary PPI inhibition); format: binding; settings: 60 min incubation; read-out: BCLxL (IC50 code, BCL-XL TR-FRET)
In short: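 TR-FRET displacement of a dye-labelled BCL-XL peptide ligand from His-tagged BCL-XL (10.5 ng) detected with a Tb-labelled anti-His donor. Incubation ran 60 min with test compound. Readout used 340 nm excitation and 620/665 nm emission with a 60 µs delay.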

[1] = Cell viability assay (CellTiter-Glo), HEK293; format: cell-based; settings: human, HEK293 cells, read-out: HEK293 (CC50 code)
In short: (§1)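 HEK293 cells in DMEM at 2000/well, plated a day before dosing; RS4-11 and MOLT-4 in RPMI-1640 at 4000/well. Compounds diluted from 200× DMSO stocks through medium into wells, then incubated 3 days at 37 °C. Viability read by CellTiter-Glo luminescence.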

BCL-2 = BCL-2 (Homo sapiens (Human), UniProt P10415); assay: BCL-2 TR-FRET Assay (primary PPI inhibition); format: binding; settings: 60 min incubation; read-out: BCL2 (IC50 code, BCL-2 TR-FRET)
In short: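 Mixture of 3 ng BCL-2, anti-His Tb donor, dye-labeled acceptor and BCL-2 peptide ligand, incubated 60 min with test compound. TR-FRET read at 340 nm excitation, 620/665 nm emission, 60 µs delay, 500 µs integration.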

RS4-11 cells = assay: Cell viability assay (CellTiter-Glo), RS4-11; format: cell-based; settings: Homo sapiens, 72 h, 3 days, read-out: RS4-11 (CC50 code)
In short: as §1

MOLT-4 cells = assay: Cell viability assay (CellTiter-Glo), MOLT-4; format: cell-based; settings: Homo sapiens, 72 h, 3 days, read-out: MOLT-4 (CC50 code)
In short: as §1

MCL-1 = MCL-1 (Homo sapiens (Human), UniProt Q07820); assay: MCL-1 TR-FRET Assay (primary PPI inhibition); format: binding; settings: 60 min incubation; read-out: MCL1 IC50
Procedure: MCL-1 TR-FRET Assay (BPS Bioscience, #79506)
The following assay concentrations and times were used: 10 ng MCL-1, 5 μl of 1:200 anti-His Tb-labeled donor, 5 μl of 1:200 Dye-labeled acceptor, 5 μl of 1:10 MCL-1 Peptide Ligand, and 2 μl of test compound, with 60 min incubation time. The results of the assay were read using a Clariostar (BMG Labtech) plate reader with the following parameters: TR FRET, 340ex/620 and 665em; 60 μsec Delay; and 500 μsec integration.

[2] = system: caspase-3 and -7 activities in RS4-11 cells; assay: Caspase-3/7 activation (Caspase-Glo 3/7) in RS4-11 cells; format: cell-based; settings: Homo sapiens, 3.5 h incubation, read-out: Cas-3/7 (EC50 code)
In short: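 RS4-11 cells exposed to varying compound concentrations for 3.5 h at 37 °C, 5% CO2, then 30 min at r.t. Caspase-Glo 3/7 reagent (luminogenic DEVD substrate) added, 30 min at r.t., luminescence read.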

Chain of BCL-XL (Q07817 whole entry): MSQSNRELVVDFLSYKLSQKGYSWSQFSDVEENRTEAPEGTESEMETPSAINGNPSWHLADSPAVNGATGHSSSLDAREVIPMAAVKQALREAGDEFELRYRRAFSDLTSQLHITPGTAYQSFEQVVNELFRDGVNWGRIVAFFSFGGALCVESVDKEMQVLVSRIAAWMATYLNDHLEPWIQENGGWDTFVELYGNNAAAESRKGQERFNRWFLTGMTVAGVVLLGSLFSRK
Chain of MCL-1 (Q07820 whole entry): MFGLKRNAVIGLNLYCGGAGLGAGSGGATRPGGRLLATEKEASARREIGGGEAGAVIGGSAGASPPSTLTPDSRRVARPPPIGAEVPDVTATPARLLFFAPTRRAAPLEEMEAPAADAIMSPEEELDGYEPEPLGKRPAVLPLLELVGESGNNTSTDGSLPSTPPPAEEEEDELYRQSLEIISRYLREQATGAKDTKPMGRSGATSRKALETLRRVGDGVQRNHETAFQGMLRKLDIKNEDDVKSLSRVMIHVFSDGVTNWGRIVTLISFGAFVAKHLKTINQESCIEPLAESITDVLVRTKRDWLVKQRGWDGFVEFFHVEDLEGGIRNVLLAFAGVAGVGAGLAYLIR
Chain of BCL-2 (P10415 whole entry): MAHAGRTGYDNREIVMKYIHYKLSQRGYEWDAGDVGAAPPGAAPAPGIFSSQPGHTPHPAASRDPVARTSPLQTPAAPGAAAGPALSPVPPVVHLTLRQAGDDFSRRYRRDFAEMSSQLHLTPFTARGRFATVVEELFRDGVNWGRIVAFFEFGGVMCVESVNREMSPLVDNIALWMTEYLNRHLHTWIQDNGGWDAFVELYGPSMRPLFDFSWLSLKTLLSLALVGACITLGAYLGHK

Compound | IC50 (BCL-XL) [nM] | CC50 at 3 days [1] [µM] | IC50 (BCL-2) [nM] | CC50 (RS4-11 cells) [nM] | CC50 (MOLT-4 cells) [µM] | IC50 (MCL-1) [µM] | EC50 [2] [nM]
COCCNC(=O)c1ccc(CN(C(=O)c2cc(-c3cc4c(cc3C(=O)N3Cc5ccccc5C[C@H]3CN3CCOCC3)OCO4)n3c2CCCC3)c2ccc(O)cc2)cc1 [Compound 1, N-(4-hydroxyphenyl)-N-{4-[(2-methoxyethyl)carbamoyl]benzyl}-3-(6-{[(3S)-3-(morpholin-4-ylmethyl)-3,4-dihydroisoquinolin-2(1H)-yl]carbonyl}-1,3-benzodioxol-5-yl)-5,6,7,8-tetrahydroindolizine-1-carboxamide] | ≤ 2000 | ≤ 10 | ≤ 5 | ≤ 100 | 2 to 10 | > 100 | ≤ 100
COCCNC(=O)c1cccc(CN(C(=O)c2cc(-c3cc4c(cc3C(=O)N3Cc5ccccc5C[C@H]3CN3CCOCC3)OCO4)n3c2CCCC3)c2ccc(O)cc2)c1 [Compound 2, N-(4-hydroxyphenyl)-N-{3-[(2-methoxyethyl)carbamoyl]benzyl}-3-(6-{[(3S)-3-(morpholin-4-ylmethyl)-3,4-dihydroisoquinolin-2(1H)-yl]carbonyl}-1,3-benzodioxol-5-yl)-5,6,7,8-tetrahydroindolizine-1-carboxamide] | – | ≤ 10 | ≤ 5 | 100 to 200 | > 10 | > 100 | > 250
CN(C)CCNC(=O)c1cccc(CN(C(=O)c2cc(-c3cc4c(cc3C(=O)N3Cc5ccccc5C[C@H]3CN3CCOCC3)OCO4)n3c2CCCC3)c2ccc(O)cc2)c1 [Compound 6, N-(3-{[2-(dimethylamino)ethyl]carbamoyl}benzyl)-N-(4-hydroxyphenyl)-3-(6-{[(3S)-3-(morpholin-4-ylmethyl)-3,4-dihydroisoquinolin-2(1H)-yl]carbonyl}-1,3-benzodioxol-5-yl)-5,6,7,8-tetrahydroindolizine-1-carboxamide] | – | 10 to 25 | ≤ 5 | > 200 | > 10 | > 100 | > 250
NC(=O)c1cccc(CN(C(=O)c2cc(-c3cc4c(cc3C(=O)N3Cc5ccccc5C[C@H]3CN3CCOCC3)OCO4)n3c2CCCC3)c2ccc(O)cc2)c1 [Compound 7, N-(3-carbamoylbenzyl)-N-(4-hydroxyphenyl)-3-(6-{[(3S)-3-(morpholin-4-ylmethyl)-3,4-dihydroisoquinolin-2(1H)-yl]carbonyl}-1,3-benzodioxol-5-yl)-5,6,7,8-tetrahydroindolizine-1-carboxamide] | ≤ 2000 | ≤ 10 | ≤ 5 | 100 to 200 | 2 to 10 | > 100 | 100 to 250
CN(C)CCNC(=O)c1ccc(CN(C(=O)c2cc(-c3cc4c(cc3C(=O)N3Cc5ccccc5C[C@H]3CN3CCOCC3)OCO4)n3c2CCCC3)c2ccc(O)cc2)cc1 [Compound 8, N-(4-{[2-(dimethylamino)ethyl]carbamoyl}benzyl)-N-(4-hydroxyphenyl)-3-(6-{[(3S)-3-(morpholin-4-ylmethyl)-3,4-dihydroisoquinolin-2(1H)-yl]carbonyl}-1,3-benzodioxol-5-yl)-5,6,7,8-tetrahydroindolizine-1-carboxamide] | ≤ 2000 | > 25 | ≤ 5 | ≤ 100 | > 10 | > 100 | ≤ 100
CN1CCN(C(=O)c2cccc(CN(C(=O)c3cc(-c4cc5c(cc4C(=O)N4Cc6ccccc6C[C@H]4CN4CCOCC4)OCO5)n4c3CCCC4)c3ccc(O)cc3)c2)CC1 [Compound 10, N-(4-hydroxyphenyl)-N-{3-[(4-methylpiperazin-1-yl)carbonyl]benzyl}-3-(6-{[(3S)-3-(morpholin-4-ylmethyl)-3,4-dihydroisoquinolin-2(1H)-yl]carbonyl}-1,3-benzodioxol-5-yl)-5,6,7,8-tetrahydroindolizine-1-carboxamide] | – | 10 to 25 | 5 to 10 | > 200 | > 10 | > 100 | > 250
CN1CCN(C(=O)c2ccc(CN(C(=O)c3cc(-c4cc5c(cc4C(=O)N4Cc6ccccc6C[C@H]4CN4CCOCC4)OCO5)n4c3CCCC4)c3ccc(O)cc3)cc2)CC1 [Compound 12, N-(4-hydroxyphenyl)-N-{4-[(4-methylpiperazin-1-yl)carbonyl]benzyl}-3-(6-{[(3S)-3-(morpholin-4-ylmethyl)-3,4-dihydroisoquinolin-2(1H)-yl]carbonyl}-1,3-benzodioxol-5-yl)-5,6,7,8-tetrahydroindolizine-1-carboxamide] | ≤ 2000 | 10 to 25 | 5 to 10 | ≤ 100 | > 10 | > 100 | ≤ 100
NC(=O)c1ccc(CN(C(=O)c2cc(-c3cc4c(cc3C(=O)N3Cc5ccccc5C[C@H]3CN3CCOCC3)OCO4)n3c2CCCC3)c2ccc(O)cc2)cc1 [Compound 13, N-(4-carbamoylbenzyl)-N-(4-hydroxyphenyl)-3-(6-{[(3S)-3-(morpholin-4-ylmethyl)-3,4-dihydroisoquinolin-2(1H)-yl]carbonyl}-1,3-benzodioxol-5-yl)-5,6,7,8-tetrahydroindolizine-1-carboxamide] | ≤ 2000 | 10 to 25 | 5 to 10 | ≤ 100 | 2 to 10 | > 100 | ≤ 100
Cn1cnnc1CN(C(=O)c1cc(-c2cc3c(cc2C(=O)N2Cc4ccccc4C[C@H]2CN2CCOCC2)OCO3)n2c1CCCC2)c1ccc(O)cc1 [Compound 48, N-(4-Hydroxyphenyl)-N-[(4-methyl-1,2,4-triazol-3-yl)methyl]-3-[6-[(3S)-3-(morpholinomethyl)-3,4-dihydro-1H-isoquinoline-2-carbonyl]-1,3-benzodioxol-5-yl]-5,6,7,8-tetrahydroindolizine-1-carboxamide] | ≤ 2000 | 10 to 25 | ≤ 5 | ≤ 100 | 2 to 10 | – | ≤ 100
Cc1c(CN(C(=O)c2cc(-c3cc4c(cc3C(=O)N3Cc5ccccc5C[C@H]3CN3CCOCC3)OCO4)n3c2CCCC3)c2ccc(O)cc2)cccc1[N+](=O)[O-] [Compound 50, N-(4-Hydroxyphenyl)-N-[(2-methyl-3-nitro-phenyl)methyl]-3-[6-[(3S)-3-(morpholinomethyl)-3,4-dihydro-1H-isoquinoline-2-carbonyl]-1,3-benzodioxol-5-yl]-5,6,7,8-tetrahydroindolizine-1-carboxamide] | > 4000 | > 25 | > 50 | > 200 | 2 to 10 | – | > 250
